Results on four molecules are retold here after PubChem BioAssay AID1259407 (Chemical Carcinogenesis Research Information System (CCRIS), 2018).

Each structure is given as a SMILES string. Active and inactive are the calls of the source. How the calls were made is not given here.

The data set has as its system CCRIS mutagenicity, Ames/micronucleus/aberration tests. Briefly: CCRIS mutagenicity studies.
Setting [1] is: Test System: AMES SALMONELLA TYPHIMURIUM, Strain/Indicator: TA98, Metabolic Activation: NONE, Method: PREINCUBATION
Where [2] appears, read: Test System: AMES SALMONELLA TYPHIMURIUM, Strain/Indicator: TA100, Metabolic Activation: NONE, Method: PREINCUBATION
The mark [3] stands for this setting: Test System: AMES SALMONELLA TYPHIMURIUM, Strain/Indicator: TA1535, Metabolic Activation: NONE, Method: PREINCUBATION
Setting [4] is: Test System: AMES SALMONELLA TYPHIMURIUM, Strain/Indicator: TA1537, Metabolic Activation: NONE, Method: PREINCUBATION

As for `Cc1[nH]c(=O)c(C#N)cc1-c1ccncc1`, the mutagenic call reads like this: (Test System: AMES SALMONELLA TYPHIMURIUM, Strain/Indicator: TA97, Metabolic Activation: NONE) “inactive; negative”; (Test System: AMES SALMONELLA TYPHIMURIUM, Strain/Indicator: TA97, Metabolic Activation: S-9) “inactive; negative”; (Test System: AMES SALMONELLA TYPHIMURIUM, Strain/Indicator: TA98, Metabolic Activation: NONE) “inactive; negative”; under setting [1], “inactive; negative”; (Test System: AMES SALMONELLA TYPHIMURIUM, Strain/Indicator: TA98, Metabolic Activation: RAT, LIVER, S-9, PHENOBARBITAL AND 5,6-BENZOFLAVONE, Method: PREINCUBATION) “inactive; negative”; (Test System: AMES SALMONELLA TYPHIMURIUM, Strain/Indicator: TA98, Metabolic Activation: S-9) “inactive; negative”. Also, the mutagenic call reads like this: under setting [2], “inactive; negative”; (Test System: AMES SALMONELLA TYPHIMURIUM, Strain/Indicator: TA100, Metabolic Activation: RAT, LIVER, S-9, PHENOBARBITAL AND 5,6-BENZOFLAVONE, Method: PREINCUBATION) “inactive; negative”; (Test System: AMES SALMONELLA TYPHIMURIUM, Strain/Indicator: TA100, Metabolic Activation: S-9) “inactive; negative”; (Test System: AMES SALMONELLA TYPHIMURIUM, Strain/Indicator: TA102, Metabolic Activation: NONE) “inactive; negative”; (Test System: AMES SALMONELLA TYPHIMURIUM, Strain/Indicator: TA102, Metabolic Activation: S-9) “inactive; negative”; under setting [3], “inactive; negative”. For the same molecule, the mutagenic call reads like this: (Test System: AMES SALMONELLA TYPHIMURIUM, Strain/Indicator: TA1535, Metabolic Activation: RAT, LIVER, S-9, PHENOBARBITAL AND 5,6-BENZOFLAVONE, Method: PREINCUBATION) “inactive; negative”; under setting [4], “inactive; negative”; (Test System: AMES SALMONELLA TYPHIMURIUM, Strain/Indicator: TA1537, Metabolic Activation: RAT, LIVER, S-9, PHENOBARBITAL AND 5,6-BENZOFLAVONE, Method: PREINCUBATION) “inactive; negative”; (Test System: E. COLI, Strain/Indicator: WP2 UVRA, Metabolic Activation: NONE, Method: PREINCUBATION) “inactive; negative”; (Test System: E. COLI, Strain/Indicator: WP2 UVRA, Metabolic Activation: RAT, LIVER, S-9, PHENOBARBITAL AND 5,6-BENZOFLAVONE, Method: PREINCUBATION) “inactive; negative”; (Test System: MOUSE LYMPHOMA, Strain/Indicator: L5178Y (TK+/TK-), Metabolic Activation: NONE, Method: SUSPENSION/PLATE) “inactive; negative”. Besides, the mutagenic call (Test System: MOUSE LYMPHOMA, Strain/Indicator: L5178Y (TK+/TK-), Metabolic Activation: RAT, LIVER, S-9, PHENOBARBITAL AND 5,6-BENZOFLAVONE, Method: SUSPENSION/PLATE) was “inactive; negative”.

Take `CC(c1ccccc1)N(C)C` (stereo not drawn): the mutagenic call runs as follows: under setting [1], “inactive; negative”; (Test System: AMES SALMONELLA TYPHIMURIUM, Strain/Indicator: TA98, Metabolic Activation: RAT, LIVER, S-9, PCB, Method: PREINCUBATION) “inactive; negative”; under setting [2], “inactive; negative”; (Test System: AMES SALMONELLA TYPHIMURIUM, Strain/Indicator: TA100, Metabolic Activation: RAT, LIVER, S-9, PCB, Method: PREINCUBATION) “inactive; negative”.

`O=C1OC(=O)c2ccccc21`: the mutagenic call was “inactive; negative” (End Point: IN VITRO CHROMOSOMAL ABERRATIONS, Test System: CHINESE HAMSTER OVARY CELLS, Metabolic Activation: NONE); “inactive; negative” (End Point: IN VITRO CHROMOSOMAL ABERRATIONS, Test System: CHINESE HAMSTER OVARY CELLS, Metabolic Activation: RAT, LIVER, S-9, AROCLOR 1254); “active; positive; precipitation occurred at 10 mm” (End Point: IN VITRO CHROMOSOMAL ABERRATIONS, Test System: CHO CELLS, Metabolic Activation: NONE); “inactive; negative” (Test System: AMES SALMONELLA TYPHIMURIUM, Strain/Indicator: TA98, Metabolic Activation: HAMSTER, LIVER, S-9, AROCLOR 1254 (10%), Method: PREINCUBATION); “inactive; negative” under setting [1]; “inactive; negative” (Test System: AMES SALMONELLA TYPHIMURIUM, Strain/Indicator: TA98, Metabolic Activation: RAT LIVER S-9, PHENOBARBITAL AND BETA-NAPHTHOFLAVONE, Method: PREINCUBATION). The mutagenic call was “inactive; negative” (Test System: AMES SALMONELLA TYPHIMURIUM, Strain/Indicator: TA98, Metabolic Activation: RAT, LIVER, S-9, AROCLOR 1254 (10%), Method: PREINCUBATION); “inactive; negative” (Test System: AMES SALMONELLA TYPHIMURIUM, Strain/Indicator: TA100, Metabolic Activation: HAMSTER, LIVER, S-9, AROCLOR 1254 (10%), Method: PREINCUBATION); “inactive; negative” under setting [2]; “inactive; negative” (Test System: AMES SALMONELLA TYPHIMURIUM, Strain/Indicator: TA100, Metabolic Activation: RAT LIVER S-9, PHENOBARBITAL AND BETA-NAPHTHOFLAVONE, Method: PREINCUBATION); “inactive; negative” (Test System: AMES SALMONELLA TYPHIMURIUM, Strain/Indicator: TA100, Metabolic Activation: RAT, LIVER, S-9, AROCLOR 1254 (10%), Method: PREINCUBATION); “inactive; negative” (Test System: AMES SALMONELLA TYPHIMURIUM, Strain/Indicator: TA1535, Metabolic Activation: HAMSTER, LIVER, S-9, AROCLOR 1254 (10%), Method: PREINCUBATION). The mutagenic call is, setting by setting: under setting [3], “inactive; negative”; (Test System: AMES SALMONELLA TYPHIMURIUM, Strain/Indicator: TA1535, Metabolic Activation: RAT LIVER S-9, PHENOBARBITAL AND BETA-NAPHTHOFLAVONE, Method: PREINCUBATION) “inactive; negative”; (Test System: AMES SALMONELLA TYPHIMURIUM, Strain/Indicator: TA1535, Metabolic Activation: RAT, LIVER, S-9, AROCLOR 1254 (10%), Method: PREINCUBATION) “inactive; negative”; (Test System: AMES SALMONELLA TYPHIMURIUM, Strain/Indicator: TA1537, Metabolic Activation: HAMSTER, LIVER, S-9, AROCLOR 1254 (10%), Method: PREINCUBATION) “inactive; negative”; under setting [4], “inactive; negative”; (Test System: AMES SALMONELLA TYPHIMURIUM, Strain/Indicator: TA1537, Metabolic Activation: RAT LIVER S-9, PHENOBARBITAL AND BETA-NAPHTHOFLAVONE, Method: PREINCUBATION) “inactive; negative”. The mutagenic call was “inactive; negative” (Test System: AMES SALMONELLA TYPHIMURIUM, Strain/Indicator: TA1537, Metabolic Activation: RAT, LIVER, S-9, AROCLOR 1254 (10%), Method: PREINCUBATION); “inactive; negative” (Test System: E.COLI, Strain/Indicator: WP2UVRA, Metabolic Activation: NONE, Method: PREINCUBATION); “inactive; negative” (Test System: E.COLI, Strain/Indicator: WP2UVRA, Metabolic Activation: RAT LIVER S-9, PHENOBARBITAL AND BETA-NAPHTHOFLAVONE, Method: PREINCUBATION).

As to `O=CN(O)c1ccc(Cl)cc1`, the mutagenic call is “inactive; negative” (Test System: AMES SALMONELLA TYPHIMURIUM, Strain/Indicator: TA98, Metabolic Activation: NONE, Method: STANDARD PLATE); “active; positive” (Test System: AMES SALMONELLA TYPHIMURIUM, Strain/Indicator: TA98, Metabolic Activation: RAT, LIVER, S-9, AROCLOR 1254, Method: STANDARD PLATE); “inactive; negative” (Test System: AMES SALMONELLA TYPHIMURIUM, Strain/Indicator: TA100, Metabolic Activation: NONE, Method: STANDARD PLATE); “active; positive” (Test System: AMES SALMONELLA TYPHIMURIUM, Strain/Indicator: TA100, Metabolic Activation: RAT, LIVER, S-9, AROCLOR 1254, Method: STANDARD PLATE).
